What was measured:
Assay type in all cases: in vivo
Settings in all cases: evaluated after 13 days
[1] = tested on: Ipomoea hederacea (IPOHE); experiment: Post-emergence Test, Ipomoea hederacea (IPOHE); design: key to percentage damage caused to the plant, IPOHE (five-point scale): 5=81-100%, 4=61-80%, 3=41-60%, 2=21-40%, 1=0-20% damage
Experimental: (§1) Seeds of a variety of test species are sown in standard soil in pots (Setaria faberi (SETFA), Echinochloa crus-galli (ECHCG), Zea mays (ZEAMX), Ipomoea hederacea (IPOHE), Amaranthus palmeri (AMAPA), Amaranthus retoflexus (AMARE)). After 8 days cultivation under controlled conditions in a glasshouse (at 24° C./16° C., day/night; 14 hours light; 65% humidity), the plants are sprayed with an aqueous spray solution derived from the formulation of the technical active ingredient in acetone/water (50:50) solution containing 0.5% Tween 20 (polyoxyethelyene sorbitan monolaurate, CAS RN 9005-64-5). Compounds are applied at 1000 g/ha unless otherwise stated. The test plants are then grown in a glasshouse under controlled conditions in a glasshouse (at 24° C./16° C., day/night; 14 hours light; 65% humidity) and watered twice daily. After 13 days the test is evaluated for the percentage damage caused to the plant. The biological activities are shown in the following table on a five-point scale (5=81-100%; 4=61-80%; 3=41-60%; 2=21-40%; 1=0-20%; -=not tested).

Zea mays (ZEAMX) = experiment: Post-emergence Test, Zea mays (ZEAMX); design: key to percentage damage caused to the plant, ZEAMX (five-point scale): 5=81-100%, 4=61-80%, 3=41-60%, 2=21-40%, 1=0-20% damage
Experimental: as §1

[2] = tested on: Echinochloa crus-galli (ECHCG); experiment: Post-emergence Test, Echinochloa crus-galli (ECHCG); design: key to percentage damage caused to the plant, ECHCG (five-point scale): 5=81-100%, 4=61-80%, 3=41-60%, 2=21-40%, 1=0-20% damage
Experimental: as §1

[3] = tested on: Amaranthus retoflexus (AMARE); experiment: Post-emergence Test, Amaranthus retoflexus (AMARE); design: key to percentage damage caused to the plant, AMARE (five-point scale): 5=81-100%, 4=61-80%, 3=41-60%, 2=21-40%, 1=0-20% damage
Experimental: as §1

[4] = tested on: Amaranthus palmeri (AMAPA); experiment: Post-emergence Test, Amaranthus palmeri (AMAPA); design: key: 5=81-100%, 4=61-80%, 3=41-60%, 2=21-40%, 1=0-20% damage
Experimental: as §1

Setaria faberi (SETFA) = experiment: Post-emergence Test, Setaria faberi (SETFA); design: key to percentage damage caused to the plant, SETFA (five-point scale): 5=81-100%, 4=61-80%, 3=41-60%, 2=21-40%, 1=0-20% damage
Experimental: as §1

SMILES | percentage damage caused to the plant, IPOHE (five-point scale) ([1]; 1000 g/ha) | percentage damage caused to the plant, ZEAMX (five-point scale) (Zea mays (ZEAMX); 1000 g/ha) | percentage damage caused to the plant, ECHCG (five-point scale) ([2]; 1000 g/ha) | percentage damage caused to the plant, AMARE (five-point scale) ([3]; 1000 g/ha) | percentage damage caused to the plant, AMAPA (five-point scale) ([4]; 1000 g/ha) | percentage damage caused to the plant, SETFA (five-point scale) (Setaria faberi (SETFA); 1000 g/ha) | percentage damage caused to the plant, IPOHE (five-point scale) ([1]; 250 g/Ha) | percentage damage caused to the plant, ZEAMX (five-point scale) (Zea mays (ZEAMX); 250 g/Ha) | percentage damage caused to the plant, ECHCG (five-point scale) ([2]; 250 g/Ha) | percentage damage caused to the plant, AMARE (five-point scale) ([3]; 250 g/Ha) | percentage damage caused to the plant, AMAPA (five-point scale) ([4]; 250 g/Ha) | percentage damage caused to the plant, SETFA (five-point scale) (Setaria faberi (SETFA); 250 g/Ha)
CCn1c(Cn2ccnc2C2CC2)cc(=O)c(C(=O)O)c1-c1ccc(Cl)c(Cl)c1 [Compound 95, 6-[(2-cyclopropylimidazol-1-yl)methyl]-2-(3,4-dichlorophenyl)-1-ethyl-4-oxo-pyridine-3-carboxylic acid] | 1 (1=0-20%) | 1 (1=0-20%) | 1 (1=0-20%) | 0 | 1 (1=0-20%) | 1 (1=0-20%) | – | – | – | – | – | –
CCn1c(Cn2nc3c(c2C(F)F)COCC3)cc(=O)c(C(=O)O)c1-c1ccc(Cl)c(Cl)c1 [Compound 97, 2-(3,4-dichlorophenyl)-6-[[3-(difluoromethyl)-6,7-dihydro-4H-pyrano[4,3-c]pyrazol-2-yl]methyl]-1-ethyl-4-oxo-pyridine-3-carboxylic acid] | – | – | – | – | – | – | 0 | 1 (1=0-20%) | 1 (1=0-20%) | 1 (1=0-20%) | 1 (1=0-20%) | 0
CCn1c(Cn2cc3cc(Cl)ccc3n2)cc(=O)c(C(=O)O)c1-c1ccc(Cl)c(Cl)c1 [Compound 99, 6-[(5-chloroindazol-2-yl)methyl]-2-(3,4-dichlorophenyl)-1-ethyl-4-oxo-pyridine-3-carboxylic acid] | 1 (1=0-20%) | 1 (1=0-20%) | 0 | 0 | 0 | 0 | 0 | 0 | 1 (1=0-20%) | 0 | 0 | 0
CCn1c(Cn2ncc3ccccc32)cc(=O)c(C(=O)O)c1-c1ccc(Cl)c(Cl)c1 [Compound 105, 2-(3,4-dichlorophenyl)-1-ethyl-6-[indazol-1-ylmethyl)-4-oxo-pyridine-3-carboxylic acid] | 4 (4=61-80%) | 1 (1=0-20%) | 3 (3=41-60%) | 2 (2=21-40%) | 2 (2=21-40%) | 2 (2=21-40%) | 0 | 0 | 3 (3=41-60%) | 0 | 0 | 0
CCn1c(Cn2cc3ccccc3n2)cc(=O)c(C(=O)O)c1-c1ccc(Cl)c(Cl)c1 [Compound 106, 2-(3,4-dichlorophenyl)-1-ethyl-6-(indazol-2-ylmethyl)-4-oxo-pyridine-3-carboxylic acid] | 3 (3=41-60%) | 0 | 1 (1=0-20%) | 1 (1=0-20%) | 1 (1=0-20%) | 1 (1=0-20%) | 0 | 0 | 2 (2=21-40%) | 0 | 0 | 0
CCn1c(Cn2nc(C(F)(F)F)c3c2CCOC3)cc(=O)c(C(=O)O)c1-c1ccc(Cl)c(Cl)c1 [Compound 107, 2-(3,4-dichlorophenyl)-1-ethyl-4-oxo-6-[[3-(trifluoromethyl)-6,7-dihydro-4H-pyrano[4,3-c]pyrazol-1-yl]methyl]pyridine-3-carboxylic acid] | 2 (2=21-40%) | 0 | 1 (1=0-20%) | 1 (1=0-20%) | 1 (1=0-20%) | 1 (1=0-20%) | 0 | 0 | 2 (2=21-40%) | 0 | 0 | 0
CCOC(=O)c1nccn1Cc1cc(=O)c(C(=O)O)c(-c2ccc(Cl)c(Cl)c2)n1CC [Compound 110, 2-(3,4-dichlorophenyl)-6-[(2-ethoxycarbonylimidazol-1-yl)methyl]-1-ethyl-4-oxo-pyridine-3-carboxylic acid] | 1 (1=0-20%) | 0 | 1 (1=0-20%) | 0 | 0 | 1 (1=0-20%) | – | – | – | – | – | –
CCn1c(Cn2cnc(C(=O)OC)c2C(=O)OC)cc(=O)c(C(=O)O)c1-c1ccc(Cl)c(Cl)c1 [Compound 111, 6-[[4,5-bis(methoxycarbonyl)imidazol-1-yl]methyl]-2-(3,4-dichlorophenyl)-1-ethyl-4-oxo-pyridine-3-carboxylic acid] | 0 | 0 | 2 (2=21-40%) | 1 (1=0-20%) | 1 (1=0-20%) | 1 (1=0-20%) | – | – | – | – | – | –
CCn1c(Cn2cnc(C#N)c2C#N)cc(=O)c(C(=O)O)c1-c1ccc(Cl)c(Cl)c1 [Compound 113, 2-(3,4-dichlorophenyl)-6-[(4,5-dicyanoimidazol-1-yl)methyl]-1-ethyl-4-oxo-pyridine-3-carboxylic acid] | 0 | 1 (1=0-20%) | 1 (1=0-20%) | 1 (1=0-20%) | 1 (1=0-20%) | 1 (1=0-20%) | – | – | – | – | – | –
CCn1c(Cn2ccc(C(F)(F)F)n2)cc(=O)c(C(=O)O)c1-c1ccc(Cl)c(S(C)(=O)=O)c1 [Compound 116, 2-(4-chloro-3-methylsulfonyl-phenyl)-1-ethyl-4-oxo-6-[[3-(trifluoromethyl)pyrazol-1-yl]methyl]pyridine-3-carboxylic acid] | 1 (1=0-20%) | 1 (1=0-20%) | 1 (1=0-20%) | 1 (1=0-20%) | 1 (1=0-20%) | 1 (1=0-20%) | – | – | – | – | – | –
CCn1c(Cn2cnc(Cl)c2Cl)cc(=O)c(C(=O)O)c1-c1ccc(Cl)c(Cl)c1 [Compound 126, 6-[(4,5-dichloroimidazol-1-yl)methyl]-2-(3,4-dichlorophenyl)-1-ethyl-4-oxo-pyridine-3-carboxylic acid] | 0 | 1 (1=0-20%) | 0 | 0 | 1 (1=0-20%) | 0 | 0 | 0 | 1 (1=0-20%) | 0 | 0 | 0
